Legend:
Assay in all cases: relative viability (nuclei count vs DMSO), 5 days (fraction); higher = more cells survive
NCI-H1437 = tested on: NCI-H1437
Outline: (§1)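 Cells from lung cancer lines were seeded into 1536-well plates and, one day later, dosed by pin tool. Treatments were either a single drug or a fixed dose of an anchor drug with five library-drug doses (not always all listed) in √10 steps. After 5 days, nuclei were stained in a one-step fixation (final 0.05% Triton X-100, 1% formaldehyde, 1 ug/ml Hoechst) and counted on 4× images, and relative viability is the treated-to-vehicle nuclei ratio, as the median of duplicate plates.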

SK-MES-1 = tested on: SK-MES-1
Outline: as §1

LXF-289 = tested on: LXF-289
Outline: as §1

NCI-H1355 = tested on: NCI-H1355
Outline: as §1

HCC-827 = tested on: HCC-827
Outline: as §1

RERF-LC-KJ = tested on: RERF-LC-KJ
Outline: as §1

NCI-H647 = tested on: NCI-H647
Outline: as §1

NCI-H661 = tested on: NCI-H661
Outline: as §1

NCI-H2126 = tested on: NCI-H2126
Outline: as §1

PC-14 = tested on: PC-14
Outline: as §1

NCI-H1993 = tested on: NCI-H1993
Outline: as §1

EKVX = settings: first compound 0.02 µM
Outline: as §1

CN1CCN(CCOc2cc(OC3CCOCC3)c3c(Nc4c(Cl)ccc5c4OCO5)ncnc3c2)CC1 [Saracatinib] + Cc1nc(Nc2ncc(C(=O)Nc3c(C)cccc3Cl)s2)cc(N2CCN(CCO)CC2)n1 [Dasatinib] (partner 0.075 µM)
relative viability (NCI-H1437; first compound 0.02 µM): 0.494
relative viability (NCI-H1437; first compound 0.2 µM): 0.283
relative viability (NCI-H1437; first compound 0.6325 µM): 0.389
relative viability (NCI-H1437; first compound 2 µM): 0.289
relative viability (SK-MES-1; first compound 0.02 µM): 0.4
relative viability (SK-MES-1; first compound 0.2 µM): 0.289
relative viability (SK-MES-1; first compound 0.6325 µM): 0.233
relative viability (SK-MES-1; first compound 2 µM): 0.186
relative viability (LXF-289; first compound 0.02 µM): 0.224
relative viability (LXF-289; first compound 0.2 µM): 0.218
relative viability (LXF-289; first compound 0.6325 µM): 0.185
relative viability (LXF-289; first compound 2 µM): 0.212
relative viability (NCI-H1355; first compound 0.02 µM): 0.716
relative viability (NCI-H1355; first compound 0.2 µM): 0.703
relative viability (NCI-H1355; first compound 0.6325 µM): 0.774
relative viability (NCI-H1355; first compound 2 µM): 0.731
relative viability (HCC-827; first compound 0.02 µM): 0.3
relative viability (HCC-827; first compound 0.2 µM): 0.136
relative viability (HCC-827; first compound 0.6325 µM): 0.22
relative viability (HCC-827; first compound 2 µM): 0.131
relative viability (RERF-LC-KJ; first compound 0.02 µM): 0.883
relative viability (RERF-LC-KJ; first compound 0.2 µM): 0.797
relative viability (RERF-LC-KJ; first compound 0.6325 µM): 0.695
relative viability (RERF-LC-KJ; first compound 2 µM): 0.676
relative viability (NCI-H647; first compound 0.02 µM): 0.246
relative viability (NCI-H647; first compound 0.2 µM): 0.242
relative viability (NCI-H647; first compound 0.6325 µM): 0.214
relative viability (NCI-H647; first compound 2 µM): 0.246
relative viability (NCI-H661; first compound 0.02 µM): 0.891
relative viability (NCI-H661; first compound 0.2 µM): 0.797
relative viability (NCI-H661; first compound 0.6325 µM): 0.817
relative viability (NCI-H661; first compound 2 µM): 0.528
relative viability (NCI-H2126; first compound 0.02 µM): 0.569
relative viability (NCI-H2126; first compound 0.2 µM): 0.511
relative viability (NCI-H2126; first compound 0.6325 µM): 0.532
relative viability (NCI-H2126; first compound 2 µM): 0.398
relative viability (PC-14; first compound 0.02 µM): 0.211
relative viability (PC-14; first compound 0.2 µM): 0.127
relative viability (PC-14; first compound 0.6325 µM): 0.0455
relative viability (PC-14; first compound 2 µM): 0.0398
relative viability (NCI-H1993; first compound 0.02 µM): 0.589
relative viability (NCI-H1993; first compound 0.2 µM): 0.528
relative viability (NCI-H1993; first compound 0.6325 µM): 0.527
relative viability (NCI-H1993; first compound 2 µM): 0.501
relative viability (EKVX): 0.5
